Data: patent US20140274766A1, “METHODS OF USING F-SPONDIN AS A BIOMARKER FOR CARTILAGE DEGENERATIVE CONDITIONS AND BONE DISEASES” (priority 2009, published 2014)

Key:
OA cartilage = experiment: IL-1 effect on gene expression in OA cartilage explant cultures (QPCR); format: cell-based, human; conditions: IL-1 1 ng/ml, 24-72 h, OA cartilage explants
Description: FIG. 7: IL-1 inhibited F-spondin and aggrecan expression in OA cartilage. OA cartilage was stimulated with IL-1 (1 ng/ml) for 24-72 h and total RNA was isolated and QPCR was performed.
Since IL-1 β appears to play a significant role in the pathogenesis of OA, its effects on F-spondin expression by QPCR in cartilage explants cultures was studied. Briefly, knee articular cartilage from patients undergoing knee replacement surgery was obtained and cut in 3-mm discs, and four to six discs (˜100 mg) were placed in organ culture in 2 ml of Ham's F-12 medium+0.1% human albumin (endo toxin fr) for 24-72 h, in the presence and absence of IL-1beta (1 ng/ml). At the end of the experiment the cartilage was frozen immediately in liquid nitrogen for RNA extraction.

chick chondrocytes = experiment: Alkaline phosphatase (AP) activity in RA-stimulated chick chondrocyte cultures; format: cell-based; conditions: RA 3 days
Description: FIG. 16. Inhibition of F-spondin decreases AP activity in RA stimulated cultures. Chick chondrocytes were treated with RA at 100 nm for 5 days with and without F-spondin antibodies and AP activity assessed. Antibodies with specificities to the spondin domain (medium grey) and TSR domain (black) inhibited AP activity compared to ctrl (noAb) (light grey). Note the greater inhibitory effect of the TSR domain antibody. * p=<0.05 versus no ab ctrl.
FIG. 17. The pro-maturation effect of F-spondin is not inhibited following neutralization of TGF-β activity by coculture with Latency Associated Peptide (LAP). AP activity was determined in chick chondrocyte cultures by ELISA following RA stimulation for 3 days. Cultures were either ctrl (RA only) or RA with either F-Spondin (1 ug/ml) or LAP (10 or 100 ng/ml), or RA with F-Spondin (1 ug/ml) and LAP (10 or 100 ng/ml) in combination.
FIG. 18. Blocking αvβ3 integrin inhibits the promaturation effect of F-spondin. Chondocyte cultures were transfected as previously and stimulated with RA for 3 days in the presence of IgG control, or αvβ3 blocking antibodies prior to assay for AP activity. Inhibition of αvβ3 led to a ˜50% suppression of F-spondin-induced AP activity but had no effect on baseline AP activity (vector ctrl).
FIGS. 23A, 23B and 23C. F-spondin regulation of chondrocyte maturation requires the TSR domain. (A) Schematic representation of F-spondin protein domains and plasmid constructs encoding either full length (FS1) or TSR domain truncated (FS6) cDNAs. (B) Relative AP activity of FS or pcDNA3 control transfected cultures after 5 days treatment. (C) Relative AP activity following inhibition of F-spondin protein domains. Upper sternal chondrocytes were stimulated with 0, 10, 35 or 100 nM retinoic acid (RA) for 5 days in culture. […]
We next determined that the pro-maturation effect of F-spondin is not inhibited following neutralization of TGF-β activity by coculture with Latency Associated Peptide (LAP) (R&D Systems, Cat No 246-LP/CF). […] AP activity was determined in chick chondrocyte cultures by ELISA following RA stimulation for 3 days. […]

[1] = tested on: embryonic chick chondrocytes; experiment: TGF-β treatment of embryonic chick chondrocytes, maturation marker expression (quantitative PCR); format: cell-based; conditions: TGF-β 5 days
Description: FIGS. 24A and 24B. TGF-β enhances chondrocyte maturation and is required for F-spondin mediated induction of AP. (A) Relative gene expression of chondrocyte maturation markers following TGF-β treatment. Upper sternal chondrocytes were treated with TGF-β at the indicated doses for 5 days and mRNA levels determined by quantitative PCR. Values are expressed relative to untreated controls. (B) Effect of TGF-β depletion on F-spondin-mediated induction of AP. The conditioned media of FS1 or pcDNA3 transfected chondrocytes was harvested and immunodepleted of TGF-β or left untreated, and added to separate cultures in the presence of RA. […] Values represent mean expression levels of triplicate samples relative to untreated supernatants from vector ctrl cultures (=1).
We have previously reported that F-spondin can regulate the synthetic activity of articular chondrocytes via activation of latent TGF-β (Attur, M et al (2009) Faseb J 23:79-89). Since the TSR domain harbors conserved TGF-β binding motifs, we proposed that F-spondin-mediated enhancement of chondrocyte maturation similarly occurs via TGF-β. […] To determine whether […] is required for F-spondin induction of AP, we transfected chick chondrocytes with FS1 or control vector cDNA and harvested conditioned media supernatants after 48 h. Supernatants were then depleted of TGF-β by coincubation with anti-TGF-b antibody and added to separate cultures of chick chondrocytes in the presence of retinoic acid for 24 h.

## IL-1: pro-inflammatory cytokine
OA cartilage
  expression of F-spondin: significantly inhibited
  expression of aggrecan: significantly inhibited

## LAP: Latency Associated Peptide (R&D Systems), neutralizes TGF-β activity
Chick chondrocytes; LAP 10-100 ng/ml with F-Spondin 1 ug/ml
  effect on AP activity increase seen with F-spondin alone: did not significantly alter
Chick chondrocytes; LAP 10-100 ng/ml
  chondrocyte maturation: accelerates maturation

## TGF-β
[1]
  expression of AP: dose dependent increases
  expression of F-spondin: dose dependent increases
  expression of MMP-13: dose dependent increases
